Measured values as given in US8841346B2 (Massachusetts Institute of Technology, priority 2009, dated 2014).
≈ marks a conversion by molar mass, not a printed value. Entries after “also recorded” stand apart in the source; their conditions may differ. Where two headings read alike, the source gives them in different places.

Tests used:
[1] = tested on: TCF/LEF luciferase reporter gene; test: TCF/LEF luciferase reporter gene in human neural progenitor cells; type: cell-based; details: read-out: EC50 of TCF/LEF luciferase reporter activation
HEK293 cells = test: Histone acetylation marks in HEK293 cells, Western blot; type: cell-based; details: whole HEK293 cells, 10 uM, 6 hour
mice [2] = test: Three-day fear memory extinction trials with reminder shock; type: in vivo; details: 25 mg/kg
Method: Two groups of mice were trained in contextual fear conditioning for two times before a three-day-extinction trials. In each extinction day, mice were exposed to the training box without any shock for 3 minutes and returned back to their home-cage. […] The freezing behavior of each mouse in the training cage were monitored. To test the fear memory recovery, a reminder shock was given one hour after the last extinction trial.

[3] = tested on: HDAC2 overexpression mice
Method: Mice were trained using contextual fear conditioning paradigm on day 0.
For the memory reconsolidation paradigm, after the fear extinction training as described above, mice were housed in the home cage for one month. Mice were subsequently re-exposed to the conditioning box for 3 min, their freezing behavior measured.

mice [4] = test: Extinction of fear memory under specific context; type: in vivo; details: 30 mg/kg one hour after retrieval, 3 days, n=10
Method: Mice were placed in a novel training box for 3 minutes and received tone for 30 seconds, followed by electrical shocks. […] Twenty-four hours after the second fear conditioning training, mice were exposed to the training chamber (context only) to retrieve the context dependant memory. […] One hour after injection, mice were placed back in the chamber for 3 min for the extinction training. The reactivation-extinction trials were performed once in each day for 3 days and freezing level was measured 5 days after the last training. (n=10 for each group).

C57/BL6 WT mice = test: Contextual fear conditioning paradigm, memory formation in wild type mice; type: in vivo; details: for memory formation, tested 24 hours after training: 1 mg/kg for 10 days, WT mice, n=20 (FIG. 45B); for memory as measured by % freezing, contextual fear conditioning: HDAC inhibitor injected for 10 days, WT mice (FIG. 26)
Method: C57/BL6 WT mice were injected with vehicle or HDAC inhibitor for 10 days.
The total number of mice in each group is indicated in the bottom of each column of FIG. 45A. Mice were subsequently trained with contextual fear conditioning paradigm and tested 24 hours after training. […] After 10 day's dosing, mice were trained with contextual fear conditioning paradigm and tested 24 hours after training.

[5] = oral dose level of less than 15 mg/m2 once a day, humans; cited from earlier work
CK-p25 mice [6] = test: Local field potential recording in hippocampus CA1 of CK-p25 mice; type: in vivo; details: 1 mg/kg i.p. 10 days, recorded 10 days after treatment
CK-p25 mice [7] = test: Morris watermaze in CK-p25 mice; details: 1 mg/kg i.p. for 10 days
Method: All 3 groups of mice were trained with the standard Morris watermaze paradigm for 6 days. Mice were placed in the swimming pool for 60 seconds to search for the hidden platform in each trial. A total of 3 trials were performed in each day with 5 min inter-trial-intervals. The average time each group of mice spent to find the platform is plotted (escape latency).
The two groups of mice were trained in the Morris watermaze paradigm for 7 days as described above. On day 8, platform was removed and mice were tested for memory retrieval. The average time each group of mice spent in the target quadrant is plotted.

[8] = Maximal solubility of CI-994 free base in solvents, HPLC; type: physicochemical
Wild type C57/BL6 mice = test: Fear extinction under normal extinction paradigm; type: in vivo; details: DCS 15 mg/kg or CI-994 30 mg/kg, 21 minute extinction trial
Excerpt: Wild type C57/BL6 mice were trained with contextual fear conditioning paradigms.

WT C57/BL6 mice = test: Single dose before one 21 minute fear extinction trial; type: in vivo
Method: The mice were exposed to the fear-associated context for 21 minutes without pairing with shock. Freezing behavior was measured in the first 3 minutes and last 3 minutes during the extinction training, 24 hrs after extinction and 30 days after extinction. (n=20 for each group).

mice [9] = test: Extinction of traumatic long-term memories; type: in vivo
Excerpt: 30 days after training, mice were exposed to two 3-min extinction sessions per day in the same context as they were trained. […] 30 days after fear conditioning to both the context (context A) and the cue (3×0.8 mA shock for 2 sec paired with a tone) mice were first exposed to the cue alone in a different context (context B) than the one in which training occurred (context A), and subsequently to two 3-min extinction sessions per day in the same context as they were trained (context A). After the end of this extinction session, mice were again exposed to context B, and their memory tested.

mice [10] = test: Fear extinction under the reconsolidation paradigm; type: in vivo; details: for spontaneous recovery of fear memory, freezing one month after initial training: reconsolidation paradigm; for fear extinction, freezing time of first trial in each day: reconsolidation training 4 days, n=20
Method: Mice were trained in contextual fear conditioning paradigm with two shocks. The mice subsequently received the reconsolidation training during the following 4 days. […] One hour after injection, mice were placed back to the same context for 3 minutes. The freezing time of the first trial in each day was measured and plotted.
Spontaneous recovery of the fear memory were tested one month after the initial fear memory training. […] (students t-Test).

HDAC isoforms = test: Enzymatic inhibitory activity against known HDAC isoforms; type: biochemical, human; details: for time dependent enzymatic inhibitory activity against HDAC isoforms: 1-3 h preincubation
Excerpt: Comparison was also made to other known memory enhancers and their ability to inhibit the same HDAC enzymes.

[11] = Solubility study of CI-994 HCl salt in saline; type: physicochemical
Method: 2. […] Shaken the tube manually. Observation: Solution becomes hazy. 4. Sonicated the above solution of step 3 for 5 minutes. Observation: Solution becomes white colored cloudy solution when 0.9% saline solution was added. […] 5. […] 6. Supernatant clear solution of step 5 was used for analysis.

[12] = target concentration 5 mg/ml, 0.9% NaCl

CC(=O)Nc1ccc(C(=O)Nc2ccccc2N)cc1 [CI-994, 4-(acetylamino)-N-(2-aminophenyl)benzamide]
EC50 [1]: ~7 µM
acetylation levels over DMSO controls (anti-acetyl H4K12) (HEK293 cells): increased acetylation levels over DMSO controls
decay of freezing time before and after injection, extinction day 1 (mice [2]): faster decay of freezing time
decay of freezing time before and after injection, extinction day 2 (mice [2]): faster decay of freezing time
extinction of fear memory, freezing during first 3-min-exposure in each day (mice [2]; N=8): much faster
freezing time on the third day (mice [2]; p<0.05): significantly less freezing time than the control group
freezing level 24 hours after the reminder shock (mice [2]; versus control group): No significant difference
freezing level after 5 extinction trials ([3]; HDAC2 overexpressing mice, 30 mg/kg i.p., 2 doses): 30%
freezing levels after one month of spontaneous recovery ([3]; HDAC2 overexpression mice): significantly reduced the freezing levels
fear memory extinction in WT mice ([3]; WT mice, 30 mg/kg i.p.): extinct significantly faster than the vehicle treated group
freezing level 5 days after the last training (mice [4]): enhanced extinction of fear memory under specific context
memory formation, tested 24 hours after training (C57/BL6 WT mice): significantly increased memory formation
memory as measured by % time freezing (C57/BL6 WT mice; 1 mg/kg, every day and alternate day dosing schedule): equally effective
memory as measured by % time freezing (C57/BL6 WT mice; 30 mg/kg every day for 10 days): improves the memory of mice
memory as measured by % time freezing (C57/BL6 WT mice; 30 mg/kg, alternate day dosing schedule): equally effective
memory as measured by % time freezing, dose response (C57/BL6 WT mice; 10, 5, and 1 mg/kg every day for 10 days): efficacious as a memory enhancer at all doses
serum AUC, average (variance as percentage of the mean) [5]: 9500(62.7%) ng·hr/mL
serum Cmax, average (variance as percentage of the mean) [5]: 570(25.1%) ng/mL
LFP oscillation power in area CA1 (theta and gamma band) (CK-p25 mice [6]): significantly increased the oscillation power
time spent in the target quadrant, memory retrieval on day 8 (CK-p25 mice [7]): rescued the memory retrieval deficits
escape latency (time to find hidden platform) (CK-p25 mice [7]; 6 days training): showed similar learning curve as control mice
Conc. in Vehicles, DMA ([8]; maximal solubility, free base): 246040 µg/mL
Conc. in Vehicles, DMSO ([8]; maximal solubility, free base): 266150 µg/mL
Conc. in Vehicles, EtOH ([8]; maximal solubility, free base): 2120 µg/mL
Conc. in Vehicles, NMP ([8]; maximal solubility, free base): 243280 µg/mL
Conc. in Vehicles, Saline ([8]; maximal solubility, free base, 0.9% NaCl, at least 2 h): 80 µg/mL
solubility at 2 h ([8]; saline (0.9% NaCl), saline or isotonic, read-out: Conc. in Vehicles, Saline): 80 µg/mL (≈ 297 µM)
freezing 24 hours after the extinction training (Wild type C57/BL6 mice): showed significant reduction in freezing
spontaneous recovery of fear memory 30 days after extinction training (WT C57/BL6 mice; one dose i.p. 30 mg/kg): not evident
freezing behavior after single extinction exposure (WT C57/BL6 mice; one dose i.p. 30 mg/kg one hour before 21 minute extinction trial, n=20): effective reduction in freezing
memories formed in a different context (context B) (mice [9]; 5 mg/kg (FIG. 49E)): did not affect memories formed in a context different from the extinction context
freezing level during extinction sessions 30 days after training (mice [9]; 5 mg/kg, p<0.001 (FIG. 49B)): significantly reduced the animals' freezing level
freezing levels 30 days after the last extinction trial (mice [9]; 5 mg/kg, p<0.001 (FIG. 49C)): still show reduced freezing levels compared to vehicle-treated ones
freezing level in the extinction context (context A) (mice [9]; 5 mg/kg, p<0.05 (FIG. 49F)): exclusively reduced the animals' freezing level in the context in which the extinction had occurred
freezing levels 30 days after last extinction trials, extinguished context (mice [9]; 5 mg/kg, p<0.05 (FIG. 49G)): still show reduced freezing levels compared to vehicle-treated ones
spontaneous recovery of fear memory, freezing one month after initial training (mice [10]): significantly lower freezing level than the vehicle group
fear extinction, freezing time of first trial in each day (mice [10]): significantly facilitated fear extinction
enzymatic inhibitory activity against HDAC isoforms (inhibition profile) (HDAC isoforms): primarily Class I HDAC inhibitors
time dependent enzymatic inhibitory activity against HDAC isoforms (HDAC isoforms): primarily Class I HDAC inhibitors
enzymatic inhibitory activity against HDAC isoforms (inhibition profile) (HDAC isoforms; listed as CI994): inhibits HDAC1, 2 and 3

CC(=O)Nc1ccc(C(=O)Nc2ccccc2N)cc1.Cl [BROAD-SAI-140]
improvement in solubility in aqueous solution versus CI-994 [11]: 35 ×
chemical and solution stability, HPLC ([11]; saline solution): ≥ 2 h
Amount of drug dissolved in mg/ml of saline, 2 hours [11, 12]: 2.841 mg/mL
Amount of drug dissolved in mg/ml of saline, Initial [11, 12]: 2.852 mg/mL

Nc1ccccc1NC(=O)c1ccc(CNC(=O)OCc2cccnc2)cc1 [MS-275, reference compound]
memory as measured by % freezing, contextual fear conditioning (C57/BL6 WT mice): not efficacious; also recorded: did not result in improved cognition

N[C@@H]1CONC1=O [DCS, D-cycloserine, reference compound]
freezing 24 hours after the extinction training (Wild type C57/BL6 mice): showed significant reduction in freezing
spontaneous recovery of fear memory, freezing one month after initial training (mice [10]): no significant difference comparing to the vehicle group
fear extinction, freezing time of first trial in each day (mice [10]): but not DCS, significantly facilitated fear extinction

Nc1ccc(C(=O)Nc2ccccc2N)cc1 [dinaline]
enzymatic inhibitory activity against HDAC isoforms (inhibition profile) (HDAC isoforms): primarily Class I HDAC inhibitors
time dependent enzymatic inhibitory activity against HDAC isoforms (HDAC isoforms): primarily Class I HDAC inhibitors

Nc1ccccc1NC(=O)c1ccc(CNc2nccc(-c3cccnc3)n2)cc1 [MGCD0103, reference compound]
memory as measured by % freezing, contextual fear conditioning (C57/BL6 WT mice): not efficacious
memory as measured by % freezing, contextual fear conditioning (C57/BL6 WT mice; listed as MGC-D0103): did not result in improved cognition

O=C(CCCCCCC(=O)Nc1ccccc1)NO [SAHA, reference compound]
acetylation levels over DMSO controls (anti-acetyl H4K12) (HEK293 cells): increased acetylation levels over DMSO controls

COc1cc2c(cc1OC)C(=O)C(CC1CCN(Cc3ccccc3)CC1)C2 (stereo not drawn) [Aricept, reference compound]
memory formation, tested 24 hours after training (C57/BL6 WT mice): did not show any effects in memory formation
